Assay results from patent publication US8642793B1, “Biosurfactant produced by Aureobasidium pullulans” (Gyeongbuk Institute for Marine Bio-industry, priority 2012, dated 2014).
Where two headings read alike, the source gives them in different places. One block for each molecule: values may come before it.

How the values were obtained:
[1] = Measurement of surface tension with a surface tension meter (Sigma 700, KSV Instruments); assay type: physicochemical
Procedure: Compound L9 isolated in Example 1 was dropped on a hydrophobic film, and surface tension variation was observed using a surface tension meter (Densitometer, Sigma 700 Densitometer (KSV Instruments Ltd., Finland)). Water was a control, and a culture medium and the size of compound L9 were compared. The numerical value of the surface tension was shown as (dyne/cm (or mN/m)). When a surfactant that has a hydrophobic moiety and a hydrophilic moiety is added to water, surface tension decreases. […] As the intermolecular interaction increases, the surface tension increases. Surface tensions of Compound L9 and known materials produced by bacteria (Table 2) and yeasts (Table 3) were measured, and the results are shown in Tables 2 and 3 below.

[2] = reference liquids of Table 1, no amount given; cited from earlier work

Molecule: CCCCC[C@@H](O)C[C@@H](O)CC(=O)O[C@H](CCCCC)C[C@@H](O)CC(=O)O[C@H](CCCCC)C[C@@H](O)CC(=O)OCC(O)CO (stereo partly shown) [Compound L9]
Surface tension ([1]; amount of material 1.5 mg/L): 31.5 dyne/cm | Surface tension ([1]; at 1.5 mg/litter): 31.5 mN/m | degree of activity (surface tension) ([1]; summary statement, no amount given): 31 dyne/cm

Molecule: OCC(O)CO [Glycerin]
Surface tension [2]: 63 dyne/cm

Molecule: Iturin
Surface tension ([1]; amount of material 20 mg/L): 43.0 dyne/cm

Molecule: Trehalos lipid
Surface tension ([1]; amount of material 25 mg/L): 24.1 dyne/cm

Molecule: Trehalose lipid
Surface tension ([1]; amount of material 0.7 mg/L): 43.0 dyne/cm

Continued, values first:

Surface tension ([1]; amount of material 300 mg/L): 26.0 dyne/cm
Molecule: Flavolipid

Surface tension ([1]; amount of material 30 mg/L): 31.4 dyne/cm
Molecule: Rhamnolipid

Surface tension ([1]; amount of material 40 mg/L): 35.0 dyne/cm
Molecule: Sophorolipid
